Experimental data published in patent US20240309015A1, “Methods for the Treatment of Fibrotic Disease” (SHY Therapeutics, LLC, priority 2021, published 2024).

Legend:
[1] = tested on: KRas wild type; assay: Ras GTP Binding Domain Inhibition Assay, KRas wild type; conditions: at 20 μM
In short: (§1)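 Ni-plate-captured His-tagged GTPase (10-30 μg/mL, o/n 4° C); cpd 20 μM or serial dilution (IC50), 1% DMSO, 3 h RT; optional Sos 556-1049 His-tag (10-30 μg/mL) last hour. Cy3- or Cy5-GTP 100 nM, 45 min RT, 3× wash, fluorescence read.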

[2] = tested on: KRas G12D mutant; assay: Ras GTP Binding Domain Inhibition Assay, KRas G12D mutant; conditions: at 20 μM; for KRas G12D mutant + SOS: % inh.: with SOS; for KRas G12D mutant: % inh.: without SOS
In short: as §1

[3] = tested on: KRas G12C mutant; assay: Ras GTP Binding Domain Inhibition Assay, KRas G12C mutant; conditions: at 20 μM
In short: as §1

[4] = tested on: Rho-A; assay: Ras GTP Binding Domain Inhibition Assay, Rho-A; conditions: at 20 μM
In short: as §1

[5] = Assessment of plasma exposure in DBA/2J mice; type: in vivo, mouse; conditions: Group 4: 100 mg/kg PO, Vehicle 2 (Solubilized Lipid)
[6] = tested on: Smad2 phosphorylation; assay: Phospho-Smad2 western blot of D2-mdx mouse tissues; type: in vivo; conditions: 100 mg/kg IP daily for 3 days
Text: (§2) The experiment described herein was designed to monitor the effects of Compound 9 on two biomarkers related to fibrosis in D2-mdx mice. The first biomarker is Smad2 phosphorylation, and the second is the levels of serum albumin in the different muscle tissues. Fibrosis causes disruption of the fine transparent tubular sheath which envelops the fibers of skeletal muscles, this can result in various molecules from the blood and interstitial fluid leaking into myofibres. A classic example is serum albumin, which can be identified in tissue sections and considered to be hallmark of myofibre permeability.
(§3) Experimental Design: Compound 9 was suspended in 0.5% Hydroxypropyl Methylcellulose (HPMC)/0.1% Tween® 80 to a final concentration of 10 mg/mL. […]
(§4) Tissue protein extraction: Frozen tissues were placed on ice in prechilled tubes with 30 μL/mg with of ice-cold RIPA buffer+Halt™ Protease & Phosphatase Inhibitor Cocktail. […] Supernatant was removed and protein concentration determined by BCA assay.
(§5) Western blot protocol: Equal amounts of protein (15-50 μg) were separated by SDS-PAGE and transferred to nitrocellulose membranes (Invitrogen by Thermo Fisher Scientific). […] Membranes were blocked with 10% milk and albumin levels were assessed by incubating overnight at 4° C. with albumin antibody (Cell Signaling Technology #4929). […]

[7] = tested on: serum albumin; assay: Albumin western blot of D2-mdx mouse tissues; type: in vivo; conditions: D2-mdx mice, 100 mg/kg IP daily for 3 days
Text: as §2, §3, §4, §5

[8] = Observation for overt toxicity in DBA/2J mice; type: in vivo; conditions: male DBA/2J mice, single dose, 100 mg/kg IP
Procedure: Experimental Design: Compound 9 was suspended in 0.5% Hydroxypropyl Methylcellulose (HPMC)/0.1% Tween® 80 to a final concentration of 10 mg/mL. The dosing solutions were prepared prior to the start of the test. Male DBA/2J mice (Jackson Stock No: 000671) were housed in solid bottom cages with standard chow and water ad libitum. Dosing was initiated when animals were 7-8 weeks old. Mice were dosed at a volume of 10 mL/kg by intraperitoneal (IP) injection at 100 mg/kg or vehicle. […] Blood was collected at 15 min, 30 min, 1 h, 2 h, 4 h, 7 h, 16 h, 24 h by cardiac puncture, mixed gently 8 times and put on ice until centrifuged within 30 minutes of collection. The plasma was transferred to a 96-well plate for analysis of test compound levels.

[9] = Observation for overt toxicity in D2-mdx mice; type: in vivo; conditions: male D2-mdx mice, 100 mg/kg IP daily for 3 days
Procedure: Experimental Design: Compound 9 was suspended in 0.5% Hydroxypropyl Methylcellulose (HPMC)/0.1% Tween® 80 to a final concentration of 10 mg/mL. The dosing solutions were prepared prior to the start of the test and were stored in the dark and maintained in frozen aliquots. Doses were thawed prior to administration. Male D2-mdx (JAX Stock No: 013141) mice were sourced from The Jackson Laboratory and housed in solid bottom cages with standard chow and water ad libitum. Dosing was initiated when animals were −3 weeks old. Animals were dosed daily by intraperitoneal (IP) injection at 100 mg/kg or vehicle for 3 days. […] Mice were sacrificed by CO2 euthanasia approximately 6 hours after their day 3 dosing. Heart, diaphragm, quadriceps, tibialis anterior (TA) samples were collected at termination on day 3 and snap frozen. These samples were shipped on dry ice for analysis, and were stored at −80° C.

## COCCNc1nc(-c2nccn2C)nc2sc(-c3cccc(OC)c3Cl)c(-c3ccccc3)c12 [Compound 9, 6-(2-Chloro-3-methoxyphenyl)-N-(2-methoxyethyl)-2-(1-methyl-1H-imidazol-2-yl)-5-phenylthieno[2,3-d]pyrimidin-4-amine]
[1]; with SOS
  KRas wild type + SOS: % inh.: D (D = 76-100% inhibition)
[1]; without SOS
  KRas wild type: % inh.: C (C = 46-75% inhibition)
[2]; Table 7
  KRas G12D mutant + SOS: % inh.: C (C = 46-75% inhibition)
  KRas G12D mutant: % inh.: C (C = 46-75% inhibition)
[2]; Table 8
  KRas G12D mutant + SOS: % inh.: C (C = 46-75% inhibition)
  KRas G12D mutant: % inh.: C (C = 46-75% inhibition)
[3]; with SOS
  KRas G12C mutant + SOS: % inh.: D (D = 76-100% inhibition)
[3]; without SOS
  KRas G12C mutant: % inh.: B (B = 26-45% inhibition)
[4]; with SOS
  Rho-A + SOS: % inh.: B (B = 26-45% inhibition)
[4]; without SOS
  Rho-A: % inh.: B (B = 26-45% inhibition)
[5]
  Tmax: 4 h
[6]
  Smad2 phosphorylation in the diaphragm compared to control vehicle mice: inhibition of Smad2 phosphorylation
[6]; D2-mdx mice
  Smad2 phosphorylation in the heart: No changes
[7]
  serum albumin levels in the heart: No changes
  serum albumin levels in the tibialis anterior and quadricep muscles: clear decrease
[8]
  findings of overt toxicity: No findings of overt toxicity were observed
[9]
  findings of overt toxicity: No findings of overt toxicity were observed
